According to patent US20020137929A1, “1 - (3-heterocyclylphenyl) isothiourea, -isourea, -guanidine and -amidine herbicidal agents” (Intellectual Property Department, BASF Aktiengesellschaft, priority 1998, published 2002):

Legend:
ABUTH (Velvetleaf) [1] = assay: Preemergence herbicidal evaluation; assay type: in vivo, Abutilon theophrasti; conditions: rated 4-5 weeks after treatment
In short: (§1)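 Rating at 4–5 wk post-spray on a 0–9 visual scale vs control. Application: aqueous acetone, ~0.0156–0.500 kg/ha, to soil surface after seeding, preemergence.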

AMBEL (Ragweed, Common) = assay: Postemergence herbicidal evaluation; assay type: in vivo, Ambrosia artemisifolia; conditions: for AMBEL herbicidal rating: postemergence
In short: (§2)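 Herbicidal effect was judged by eye on a 0–9 scale covering stand, vigor, deformity, size and chlorosis, compared with controls, four to five weeks after seedlings about two weeks old were sprayed (40 psi, ~0.0156–0.500 kg/ha).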

SETVI (Foxtail, Green) [2] = assay: Preemergence herbicidal evaluation; assay type: in vivo, Setaria viridis; conditions: rated 4-5 weeks after treatment
In short: as §1

SETVI (Foxtail, Green) [3] = assay: Postemergence herbicidal evaluation; assay type: in vivo, Setaria viridis; conditions: for SETVI herbicidal rating: postemergence
In short: as §2

ABUTH (Velvetleaf) [4] = assay: Postemergence herbicidal evaluation; assay type: in vivo, Abutilon theophrasti; conditions: for ABUTH herbicidal rating: postemergence
In short: as §2

[5] = tested on: SAGPY (Arrowhead (Pygmaea)); assay: Preemergence weed control under flooded paddy conditions; assay type: in vivo, Sagittaria pygmaea; conditions: rated 3-4 weeks after treatment
In short: (§3)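 Seeds or propagules sown in top 0.5 cm of silt loam soil, flooded 1.5 to 3 cm above surface throughout. Compound in 50/50 v/v aqueous/acetone pipetted into flood water at about 0.0313 to 0.500 kg/ha. Visual 0-9 rating versus control after three to four weeks in greenhouse.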

CASOB (Sicklepod) = assay: Preemergence herbicidal evaluation; assay type: in vivo, Cassia obtusifolia; conditions: rated 4-5 weeks after treatment
In short: as §1

[6] = tested on: TRZAWR (Wheat, Winter, cv Riband); assay: Postemergence herbicidal evaluation; assay type: in vivo, Triticum aestivum; conditions: for TRZAWR herbicidal rating: postemergence
In short: as §2

[7] = tested on: SAGPY (Arrowhead (Pygmaea)); assay: Postemergence weed control under flooded paddy conditions; assay type: in vivo, Sagittaria pygmaea; conditions: postemergence weeds, 3-4 weeks after treatment
In short: (§4)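 Containers holding 3–5 cm weeds and rice at 1.5–2.5 leaves are flooded to 1.5–3 cm above soil. Compound in 50/50 v/v aqueous/acetone is then added directly to the water, about 0.0313–0.500 kg/ha. Plants are kept in the greenhouse and rated 0–9 visually at 3–4 weeks.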

[8] = tested on: GLXMAW (Soybean, Williams); assay: Postemergence herbicidal evaluation; assay type: in vivo, Glycine max, (L.) Merr. cv Williams; conditions: for GLXMAW herbicidal rating: postemergence
In short: as §2

ECHCG (Barnyardgrass) = assay: Postemergence herbicidal evaluation; assay type: in vivo, Echinochloa crus-galli; conditions: for ECHCG herbicidal rating: postemergence
In short: as §2

ORYSAT (Rice, Tebonnet) = assay: Postemergence herbicidal evaluation; assay type: in vivo, Oryza sativa, (L.) Tebonnet; conditions: for ORYSAT herbicidal rating: postemergence
In short: as §2

CYPIR (Rice Flatsedge) = assay: Postemergence weed control under flooded paddy conditions; assay type: in vivo, Cyperus iria; conditions: postemergence weeds, 3-4 weeks after treatment
In short: as §4

MOOVA (Monochoria) = assay: Preemergence weed control under flooded paddy conditions; assay type: in vivo, Monochoria vaginalis; conditions: rated 3-4 weeks after treatment
In short: as §3

CCOC(=O)CN1C(=O)C2(CC2)SC1=Nc1cc(-n2c(=O)cc(C(F)(F)F)n(C)c2=O)c(F)cc1Cl [Compound 15, Ethyl 5-{{2-chloro-5-[3,6-dihydro-3-methyl-2,6-dioxo-4-(trifluoromethyl)-1(2H)-pyrimidinyl]-4-fluorophenyl}imino}-7-oxo-4-thia-6-azaspiro[2.4]-heptane-6-acetate]
7.0: SETVI herbicidal rating (SETVI (Foxtail, Green) [3]; rate 0.1250 kg/ha) | TRZAWR herbicidal rating ([6]; rate 0.1250 kg/ha) | Herbicidal rating CYPIR (CYPIR (Rice Flatsedge); rate 0.2500 kg/ha)
9.0: ABUTH preemergence herbicidal rating (ABUTH (Velvetleaf) [1]; rate 0.0625 kg/ha) | ABUTH preemergence herbicidal rating (ABUTH (Velvetleaf) [1]; rate 0.1250 kg/ha) | ABUTH preemergence herbicidal rating (ABUTH (Velvetleaf) [1]; rate 0.2500 kg/ha) | AMBEL herbicidal rating (AMBEL (Ragweed, Common); rate 0.1250 kg/ha) | SETVI preemergence herbicidal rating (SETVI (Foxtail, Green) [2]; rate 0.2500 kg/ha) | ABUTH herbicidal rating (ABUTH (Velvetleaf) [4]; rate 0.0156 kg/ha) | ABUTH herbicidal rating (ABUTH (Velvetleaf) [4]; rate 0.0313 kg/ha) | ABUTH herbicidal rating (ABUTH (Velvetleaf) [4]; rate 0.0625 kg/ha) | ABUTH herbicidal rating (ABUTH (Velvetleaf) [4]; rate 0.1250 kg/ha) | ECHCG herbicidal rating (ECHCG (Barnyardgrass); rate 0.1250 kg/ha) | Herbicidal rating MOOVA (MOOVA (Monochoria); 0.0313 kg/ha) | Herbicidal rating MOOVA (MOOVA (Monochoria); 0.0625 kg/ha) | Herbicidal rating MOOVA (MOOVA (Monochoria); 0.1250 kg/ha) | Herbicidal rating MOOVA (MOOVA (Monochoria); 0.2500 kg/ha)
1.5: ABUTH preemergence herbicidal rating (ABUTH (Velvetleaf) [1]; rate 0.0156 kg/ha)
0.0: AMBEL herbicidal rating (AMBEL (Ragweed, Common); rate 0.0156 kg/ha) | AMBEL herbicidal rating (AMBEL (Ragweed, Common); rate 0.0313 kg/ha) | SETVI herbicidal rating (SETVI (Foxtail, Green) [3]; rate 0.0156 kg/ha) | SETVI herbicidal rating (SETVI (Foxtail, Green) [3]; rate 0.0313 kg/ha) | Herbicidal rating SAGPY ([5]; 0.0313 kg/ha) | Herbicidal rating SAGPY ([5]; 0.0625 kg/ha) | Herbicidal rating SAGPY ([5]; 0.1250 kg/ha) | Herbicidal rating SAGPY ([5]; 0.2500 kg/ha) | CASOB preemergence herbicidal rating (CASOB (Sicklepod); rate 0.0156 kg/ha) | Herbicidal rating SAGPY ([7]; rate 0.0313 kg/ha) | Herbicidal rating SAGPY ([7]; rate 0.0625 kg/ha) | Herbicidal rating SAGPY ([7]; rate 0.1250 kg/ha) | Herbicidal rating SAGPY ([7]; rate 0.2500 kg/ha) | ECHCG herbicidal rating (ECHCG (Barnyardgrass); rate 0.0156 kg/ha) | ECHCG herbicidal rating (ECHCG (Barnyardgrass); rate 0.0313 kg/ha)
3.5: GLXMAW herbicidal rating ([8]; rate 0.0156 kg/ha)
4.0: AMBEL herbicidal rating (AMBEL (Ragweed, Common); rate 0.0625 kg/ha) | SETVI preemergence herbicidal rating (SETVI (Foxtail, Green) [2]; rate 0.1250 kg/ha) | GLXMAW herbicidal rating ([8]; rate 0.0313 kg/ha)
3.0: ABUTH preemergence herbicidal rating (ABUTH (Velvetleaf) [1]; rate 0.0313 kg/ha) | ECHCG herbicidal rating (ECHCG (Barnyardgrass); rate 0.0625 kg/ha)
2.0: SETVI herbicidal rating (SETVI (Foxtail, Green) [3]; rate 0.0625 kg/ha) | CASOB preemergence herbicidal rating (CASOB (Sicklepod); rate 0.1250 kg/ha) | Herbicidal rating CYPIR (CYPIR (Rice Flatsedge); rate 0.0313 kg/ha) | Herbicidal rating CYPIR (CYPIR (Rice Flatsedge); rate 0.0625 kg/ha)
6.0: TRZAWR herbicidal rating ([6]; rate 0.0313 kg/ha) | Herbicidal rating CYPIR (CYPIR (Rice Flatsedge); rate 0.1250 kg/ha)
4.5: GLXMAW herbicidal rating ([8]; rate 0.0625 kg/ha) | ORYSAT herbicidal rating (ORYSAT (Rice, Tebonnet); rate 0.0156 kg/ha)
6.5: CASOB preemergence herbicidal rating (CASOB (Sicklepod); rate 0.2500 kg/ha) | TRZAWR herbicidal rating ([6]; rate 0.0625 kg/ha) | ORYSAT herbicidal rating (ORYSAT (Rice, Tebonnet); rate 0.0625 kg/ha) | ORYSAT herbicidal rating (ORYSAT (Rice, Tebonnet); rate 0.1250 kg/ha)
5.0: TRZAWR herbicidal rating ([6]; rate 0.0156 kg/ha) | ORYSAT herbicidal rating (ORYSAT (Rice, Tebonnet); rate 0.0313 kg/ha)
0.5: SETVI preemergence herbicidal rating (SETVI (Foxtail, Green) [2]; rate 0.0156 kg/ha) | SETVI preemergence herbicidal rating (SETVI (Foxtail, Green) [2]; rate 0.0313 kg/ha) | SETVI preemergence herbicidal rating (SETVI (Foxtail, Green) [2]; rate 0.0625 kg/ha) | CASOB preemergence herbicidal rating (CASOB (Sicklepod); rate 0.0313 kg/ha) | CASOB preemergence herbicidal rating (CASOB (Sicklepod); rate 0.0625 kg/ha)
5.5: GLXMAW herbicidal rating ([8]; rate 0.1250 kg/ha)

COC(=O)CCCN1C(=O)CSC1=Nc1cc(-n2c(=O)cc(C(F)(F)F)n(C)c2=O)c(F)cc1Cl [Compound 29, Methyl 2-{{2-chloro-5-[3,6-dihydro-3-methyl-2,6-dioxo-4-(trifluoromethyl)-1(2H)-pyrimidinyl]-4-fluorophenyl}imino}-4-oxo-3-thiazolidinebutyrate]
7.0: Postemergence herbicidal rating ABUTH (ABUTH (Velvetleaf) [4]; Rate 0.0315 kg/ha)
5.0: Postemergence herbicidal rating TRZAWR ([6]; Rate 0.0315 kg/ha)
3.5: Postemergence herbicidal rating ORYSAT (ORYSAT (Rice, Tebonnet); Rate 0.0630 kg/ha)
9.0: Preemergence herbicidal rating ABUTH (ABUTH (Velvetleaf) [1]; rate 0.0625 kg/ha) | Preemergence herbicidal rating ABUTH (ABUTH (Velvetleaf) [1]; rate 0.1250 kg/ha) | Preemergence herbicidal rating ABUTH (ABUTH (Velvetleaf) [1]; rate 0.2500 kg/ha) | Postemergence herbicidal rating AMBEL (AMBEL (Ragweed, Common); Rate 0.0630 kg/ha) | Preemergence herbicidal rating SETVI (SETVI (Foxtail, Green) [2]; rate 0.2500 kg/ha) | Postemergence herbicidal rating ABUTH (ABUTH (Velvetleaf) [4]; Rate 0.0158 kg/ha) | Postemergence herbicidal rating ABUTH (ABUTH (Velvetleaf) [4]; Rate 0.0630 kg/ha)
4.5: Postemergence herbicidal rating TRZAWR ([6]; Rate 0.0158 kg/ha)
6.5: Postemergence herbicidal rating GLXMAW ([8]; Rate 0.0158 kg/ha)
5.5: Postemergence herbicidal rating TRZAWR ([6]; Rate 0.0630 kg/ha)
4.0: Postemergence herbicidal rating AMBEL (AMBEL (Ragweed, Common); Rate 0.0315 kg/ha) | Postemergence herbicidal rating SETVI (SETVI (Foxtail, Green) [3]; Rate 0.0630 kg/ha) | Postemergence herbicidal rating ECHCG (ECHCG (Barnyardgrass); Rate 0.0630 kg/ha)
7.5: Postemergence herbicidal rating GLXMAW ([8]; Rate 0.0315 kg/ha)
0.0: Preemergence herbicidal rating SETVI (SETVI (Foxtail, Green) [2]; rate 0.0625 kg/ha) | Preemergence herbicidal rating SETVI (SETVI (Foxtail, Green) [2]; rate 0.1250 kg/ha) | Postemergence herbicidal rating SETVI (SETVI (Foxtail, Green) [3]; Rate 0.0158 kg/ha) | Herbicidal rating SAGPY ([5]; 0.0313 kg/ha) | Herbicidal rating SAGPY ([5]; 0.0625 kg/ha) | Herbicidal rating SAGPY ([5]; 0.1250 kg/ha) | Herbicidal rating SAGPY ([5]; 0.2500 kg/ha) | Preemergence herbicidal rating CASOB (CASOB (Sicklepod); rate 0.0625 kg/ha) | Preemergence herbicidal rating CASOB (CASOB (Sicklepod); rate 0.1250 kg/ha) | Preemergence herbicidal rating CASOB (CASOB (Sicklepod); rate 0.2500 kg/ha) | Herbicidal rating SAGPY ([7]; rate 0.0313 kg/ha) | Herbicidal rating SAGPY ([7]; rate 0.0625 kg/ha) | Herbicidal rating SAGPY ([7]; rate 0.1250 kg/ha) | Herbicidal rating SAGPY ([7]; rate 0.2500 kg/ha) | Postemergence herbicidal rating ECHCG (ECHCG (Barnyardgrass); Rate 0.0158 kg/ha) | Herbicidal rating CYPIR (CYPIR (Rice Flatsedge); rate 0.0313 kg/ha) | Herbicidal rating CYPIR (CYPIR (Rice Flatsedge); rate 0.0625 kg/ha) | Herbicidal rating CYPIR (CYPIR (Rice Flatsedge); rate 0.1250 kg/ha) | Herbicidal rating CYPIR (CYPIR (Rice Flatsedge); rate 0.2500 kg/ha) | Herbicidal rating MOOVA (MOOVA (Monochoria); 0.0313 kg/ha) | Herbicidal rating MOOVA (MOOVA (Monochoria); 0.0625 kg/ha) | Herbicidal rating MOOVA (MOOVA (Monochoria); 0.1250 kg/ha) | Herbicidal rating MOOVA (MOOVA (Monochoria); 0.2500 kg/ha)
1.0: Postemergence herbicidal rating AMBEL (AMBEL (Ragweed, Common); Rate 0.0158 kg/ha) | Postemergence herbicidal rating SETVI (SETVI (Foxtail, Green) [3]; Rate 0.0315 kg/ha) | Postemergence herbicidal rating ECHCG (ECHCG (Barnyardgrass); Rate 0.0315 kg/ha) | Postemergence herbicidal rating ORYSAT (ORYSAT (Rice, Tebonnet); Rate 0.0158 kg/ha)
3.0: Postemergence herbicidal rating ORYSAT (ORYSAT (Rice, Tebonnet); Rate 0.0315 kg/ha)
8.0: Postemergence herbicidal rating GLXMAW ([8]; Rate 0.0630 kg/ha)
